Results as given in patent publication US20250270274A1, “SUPER LONG-LASTING GLP1 OR GLP1/GIP ANALOGUE DRUG FOR TYPE-2 DIABETES AND OBESITY” (Serpentide Inc., priority 2024, published 2025).
Where “and” joins values, the source holds several entries; their conditions need not be identical. Equal values may be shown once.

Key:
DIO mice = experiment: 28-day study in DIO mice: body weight, blood glucose, food intake; format: in vivo; conditions: for weight loss: after 28 days
Experimental: To further characterize and understand the efficacy of the fusion proteins, body weight and metabolic parameters were measured throughout a 28-day study in DIO mice (Beijing Vital River Laboratory Animal Technology Co., Ltd.).
The effects of all fusion proteins on blood glucose reduction and food intake were determined in the DIO mice described above (FIG. 7A and FIG. 7B). All mice are bled after fasting for 6 hours to measure blood glucose twice weekly.

C57BL mice = experiment: Intraperitoneal glucose tolerance test (IPGTT) after single SC injection; format: in vivo; conditions: for glucose-lowering effect (IPGTT): single SC, P19 15 nmol/kg, P28 10 or 30 nmol/kg (FIG. 5 legend); for glucose reduction (IPGTT): single SC 100 or 300 nmol/kg
Experimental: The effect of the fusion proteins on glucose tolerance was determined in C57BL mice (Beijing Vital River Laboratory Animal Technology Co., Ltd.). Each group (6 mice per group) received a single subcutaneous injection of PBS vehicle control, dulaglutide (TRULICITY® brand) (Vetter Pharma-Fertigung GmbH & Co. […] Intraperitoneal glucose tolerance tests (IPGTT) were performed on Day 1, 7, 14, 21, up to 28 after 6 hours fasting with tail vein blood glucose measurements at 0, 15, 30, 60, and 120 minutes.

[1] = cited from earlier work

| Molecule | weight loss (DIO mice; 30 nmol/kg twice weekly) | decrease in body weight compared with dulaglutide (DIO mice; twice weekly) | glucose-lowering effect (IPGTT) (C57BL mice; Day 1) | glucose-lowering effect (IPGTT) (C57BL mice; Day 7) | half-life in mice [1] | weight loss (DIO mice; 10 nmol/kg twice weekly) | glucose reduction (IPGTT) (C57BL mice; Day 1) | glucose reduction (IPGTT) (C57BL mice; Day 7 and 14) | glucose reduction (IPGTT) (C57BL mice; Day 21) |
| --- | --- | --- | --- | --- | --- | --- | --- | --- | --- |
| CC[C@H](C)[C@H](NC(=O)[C@H](CC(C)C)NC(=O)[C@H](Cc1c[nH]c2ccccc12)NC(=O)[C@H](CCC(N)=O)NC(=O)[C@@H](NC(=O)[C@H](Cc1ccccc1)NC(=O)[C@H](C)NC(=O)[C@H](CCCCNC(=O)COCCOCCNC(=O)COCCOCCNC(=O)CC[C@H](NC(=O)CCCCCCCCCCCCCCCCCCC(=O)O)C(=O)O)NC(=O)[C@H](CCC(N)=O)NC(=O)[C@H](C)NC(=O)[C@@H](NC(=O)[C@H](CCCCN)NC(=O)[C@H](CC(=O)O)NC(=O)[C@H](CC(C)C)NC(=O)C(C)(C)NC(=O)[C@@H](NC(=O)[C@H](CO)NC(=O)[C@H](Cc1ccc(O)cc1)NC(=O)[C@H](CC(=O)O)NC(=O)[C@H](CO)NC(=O)[C@@H](NC(=O)[C@H](Cc1ccccc1)NC(=O)[C@@H](NC(=O)CNC(=O)[C@H](CCC(=O)O)NC(=O)C(C)(C)NC(=O)[C@@H](N)Cc1ccc(O)cc1)[C@@H](C)O)[C@@H](C)O)[C@@H](C)CC)[C@@H](C)CC)C(C)C)C(=O)N[C@@H](C)C(=O)NCC(=O)NCC(=O)N1CCC[C@H]1C(=O)N[C@@H](CO)C(=O)N[C@@H](CO)C(=O)NCC(=O)N[C@@H](C)C(=O)N1CCC[C@H]1C(=O)N1CCC[C@H]1C(=O)N1CCC[C@H]1C(=O)N[C@@H](CO)C(N)=O [P19, Tirzepatide, reference compound] | 26% | more significant dose-dependent decrease in body weight | showed glucose-lowering effects | lost all effects | less than one day |  |  |  |  |
| dulaglutide [reference compound] | 16.6% |  |  |  |  | 10.9% and 11% | very strong glucose reduction | rapidly waned | completely lost effect |
